# Measurements as given in US20070048371A1, “Pharmaceutical formulations/composition of guanfacine suitable for single dose form administration daily” (priority 2005, published 2007).
# Where two headings read alike, the source gives them in different places.
# How the values were obtained:
# [1] = Example 3: Phase I single-dose crossover bioequivalence/dose proportionality study, 1 mg, 2 mg, 4 mg tablets, healthy adult volunteers; type: in vivo, human; conditions: for half-life: t1/2
# Protocol: Objectives: The study was designed to assess the bioequivalence of guanfacine 2 mg and 4 mg tablets from table 2 and to investigate the dose proportionality of 1 mg, 2 mg, and 4 mg doses.
# Methods: This was a Phase I, randomized, open-label, single-dose, five period, four-treatment crossover design with a separate lead-in period.
# Forty-nine (49) healthy adult volunteers completed the study. During period 1, all subjects received a single 1 mg dose administered after and overnight fast. Prior to period 2, subjects were randomly assigned to one of four sequence groups, with 13 subjects per sequence. During treatment periods 2-5, subjects received their assigned treatment of 2 mg or 4 mg. All subjects were to receive two single doses of 2 mg tablets and two single doses of 4 mg tablets during the course of the study. Doses during periods 2-5 were also administered after an overnight fast.
# [2] = Example 2: open-label dose-escalation pharmacokinetic and safety study in children and adolescents with ADHD; type: in vivo, human; conditions: for AUC(0-t) / AUC(0-inf) / Cmax / Tmax / half-life / Vd/F: both sexes, human, plasma; for Vd/F: read-out: Vz/F
# Protocol: Objective: The objective of this study was to assess the pharmacokinetics of controlled-release guanfacine after a single 2 mg dose or multiple doses of 2 mg and 4 mg from Table 2.
# Methods: An open-label, dose-escalation study in male and female children (aged 6-12 years) and adolescents (aged 13-17 years) with ADHD. Subjects weighed 25 kg (55 lb) or more but were not considered overweight in the opinion of the investigator. Their electrocardiogram readings (ECGs) were within normal ranges, and their blood pressure measurements were within the 95th percentile for their age, height, and gender. […] Informed consent was given by the patient's parent or guardian.
# […] The dose was then titrated down to 3 mg on days 30 to 32, and 2 mg on days 33 to 35. Pharmacokinetic assessments were made after the single 2 mg dose and after 6 days of repeated 2 mg and 4 mg doses.
# [3] = 28 children and adolescents with ADHD, 2-4 mg qd dose escalation
# [4] = po, 2 mg, single 2 mg oral dose, Day 1, adolescents 13-17 yrs, ADHD patients, N = 14
# [5] = po, 2 mg, single 2 mg oral dose, Day 1, children 6-12 yrs, ADHD patients, N = 14
# [6] = single 2 mg oral dose, Day 1, adolescents 13-17 yrs, ADHD patients, N = 14
# [7] = single 2 mg oral dose, Day 1, children 6-12 yrs, ADHD patients, N = 14
compound,measurement,setting,value
N=C(N)NC(=O)Cc1c(Cl)cccc1Cl [guanfacine],AUC(0-inf),"[1]; human, in vivo, po, 4 mg, AUC0-∞",125 ± 46 ng·h/mL
same,Cmax,"[1]; human, in vivo, po, 4 mg, Cmax",3.58 ± 1.39 ng/mL
same,Vd/F,"[1]; human, in vivo, po, 4 mg, Vz/F",854 ± 294 L
same,half-life,"[1]; human, in vivo, po, 4 mg",17.1 ± 5.51 h
same,Tmax,"[1]; human, in vivo, po, 4 mg, tmax",5.01 h
same,half-life,"[1]; human, in vivo",17.1 ± 5.5 h
same,deaths or serious adverse events,"[1]; single 1 mg, 2 mg, 4 mg doses, healthy adults",no deaths or serious adverse events
same,"abnormalities on ECGs, hematologic parameters, or serum chemistries",[2]; [3],No clinically significant abnormalities
same,discontinuations due to adverse events,[2]; [3],no discontinuations
same,severity of most AEs,[2]; [3],mild to moderate
same,subjects with somnolence (AE possibly or probably due to treatment),[2]; [3],93%
same,subjects judged to have severe somnolence,"[2]; 28 children and adolescents with ADHD, 2-4 mg qd dose escalation, 6 subjects",21%
same,CL/F,"[2]; Day 14, 2 mg once daily oral, adolescents 13-17 yrs, ADHD patients, N = 14",826 ± 486 mL/min
same,CL/F,"[2]; Day 14, 2 mg once daily oral, children 6-12 yrs, ADHD patients, N = 14",552 ± 215 mL/min
same,CL/F,"[2]; Day 28, 4 mg once daily oral, adolescents 13-17 yrs, ADHD patients, N = 14",607 ± 166 mL/min
same,CL/F,"[2]; Day 28, 4 mg once daily oral, children 6-12 yrs, ADHD patients, N = 14",522 ± 212 mL/min
same,AUC(0-t),"[2]; oral, 2 mg, dose of 2 mg of guanfacine, fasted patients ages 6-12 suffering from ADHD, read-out: AUC0-last",~56.9 ng·h/mL
same,AUC(0-inf),"[2]; oral, 2 mg, dose of 2 mg of guanfacine, fasted patients ages 6-12 suffering from ADHD, read-out: AUC∞",~65.2 ng·h/mL
same,Cmax,"[2]; oral, 2 mg, dose of 2 mg of guanfacine, fasted patients ages 6-12 suffering from ADHD, read-out: mean Cmax",~2.55 ng/mL
same,Tmax,"[2]; oral, 2 mg, dose of 2 mg of guanfacine, fasted patients ages 6-12 suffering from ADHD, read-out: median Tmax",~5 h
same,AUC(0-t),"[2]; oral, 2 mg, dose of 2 mg of guanfacine, fasted patients ages 13-17 suffering from ADHD, read-out: AUC0-last",~42.7 ng·h/mL
same,AUC(0-inf),"[2]; oral, 2 mg, dose of 2 mg of guanfacine, fasted patients ages 13-17 suffering from ADHD, read-out: AUC∞",~47.2 ng·h/mL
same,Cmax,"[2]; oral, 2 mg, dose of 2 mg of guanfacine, fasted patients ages 13-17 suffering from ADHD, read-out: mean Cmax",~1.69 ng/mL
same,Tmax,"[2]; oral, 2 mg, dose of 2 mg of guanfacine, fasted patients ages 13-17 suffering from ADHD, read-out: median Tmax",~5 h
same,half-life,"[2]; oral, 2 mg, measured for the 2 mg formulation, fasted patients ages 6-12 suffering from ADHD",14.4 ± 2.4 h
same,half-life,"[2]; oral, 2 mg, measured for the 2 mg formulation, fasted patients ages 13-17 suffering from ADHD",17.9 ± 5.8 h
same,AUC(0-t),"[2]; po, 2 mg, Day 14, 2 mg once daily oral, adolescents 13-17 yrs, ADHD patients, N = 14, read-out: AUC0-24",48.2 ± 16.1 ng·h/mL
same,Cmax,"[2]; po, 2 mg, Day 14, 2 mg once daily oral, adolescents 13-17 yrs, ADHD patients, N = 14, read-out: Cmax",2.86 ± 0.77 ng/mL
same,Tmax,"[2]; po, 2 mg, Day 14, 2 mg once daily oral, adolescents 13-17 yrs, ADHD patients, N = 14, read-out: Tmax",4.53 h
same,AUC(0-t),"[2]; po, 2 mg, Day 14, 2 mg once daily oral, children 6-12 yrs, ADHD patients, N = 14, read-out: AUC0-24",70 ± 28.3 ng·h/mL
same,Cmax,"[2]; po, 2 mg, Day 14, 2 mg once daily oral, children 6-12 yrs, ADHD patients, N = 14, read-out: Cmax",4.39 ± 1.66 ng/mL
same,Tmax,"[2]; po, 2 mg, Day 14, 2 mg once daily oral, children 6-12 yrs, ADHD patients, N = 14, read-out: Tmax",4.98 h
same,half-life,[2]; [4],17.9 ± 5.77 h
same,AUC(0-t),"[2]; po, 2 mg, single 2 mg oral dose, Day 1, adolescents 13-17 yrs, ADHD patients, N = 14, read-out: AUC0-t",42.7 ± 12.9 ng·h/mL
same,AUC(0-inf),"[2]; po, 2 mg, single 2 mg oral dose, Day 1, adolescents 13-17 yrs, ADHD patients, N = 14, read-out: AUC0-∞",47.3 ± 13.7 ng·h/mL
same,Cmax,"[2]; po, 2 mg, single 2 mg oral dose, Day 1, adolescents 13-17 yrs, ADHD patients, N = 14, read-out: Cmax",1.69 ± 0.43 ng/mL
same,Tmax,"[2]; po, 2 mg, single 2 mg oral dose, Day 1, adolescents 13-17 yrs, ADHD patients, N = 14, read-out: Tmax",4.96 h
same,Vd/F,[2]; [4],1240 L
same,half-life,[2]; [5],14.4 ± 2.39 h
same,AUC(0-t),"[2]; po, 2 mg, single 2 mg oral dose, Day 1, children 6-12 yrs, ADHD patients, N = 14, read-out: AUC0-t",56.9 ± 22 ng·h/mL
same,AUC(0-inf),"[2]; po, 2 mg, single 2 mg oral dose, Day 1, children 6-12 yrs, ADHD patients, N = 14, read-out: AUC0-∞",65.2 ± 23.9 ng·h/mL
same,Cmax,"[2]; po, 2 mg, single 2 mg oral dose, Day 1, children 6-12 yrs, ADHD patients, N = 14, read-out: Cmax",2.55 ± 1.03 ng/mL
same,Tmax,"[2]; po, 2 mg, single 2 mg oral dose, Day 1, children 6-12 yrs, ADHD patients, N = 14, read-out: Tmax",4.98 h
same,Vd/F,[2]; [5],766 ± 380 L
same,AUC(0-t),"[2]; po, 4 mg, Day 28, 4 mg once daily oral, adolescents 13-17 yrs, ADHD patients, N = 14, read-out: AUC0-24",117 ± 28.4 ng·h/mL
same,Cmax,"[2]; po, 4 mg, Day 28, 4 mg once daily oral, adolescents 13-17 yrs, ADHD patients, N = 14, read-out: Cmax",7.01 ± 1.53 ng/mL
same,Tmax,"[2]; po, 4 mg, Day 28, 4 mg once daily oral, adolescents 13-17 yrs, ADHD patients, N = 14, read-out: Tmax",4.97 h
same,AUC(0-t),"[2]; po, 4 mg, Day 28, 4 mg once daily oral, children 6-12 yrs, ADHD patients, N = 14, read-out: AUC0-24",162 ± 116 ng·h/mL
same,Cmax,"[2]; po, 4 mg, Day 28, 4 mg once daily oral, children 6-12 yrs, ADHD patients, N = 14, read-out: Cmax",10.1 ± 7.09 ng/mL
same,Tmax,"[2]; po, 4 mg, Day 28, 4 mg once daily oral, children 6-12 yrs, ADHD patients, N = 14, read-out: Tmax",5.02 h
same,linearity of pharmacokinetics,"[2]; single 2 mg doses and multiple 2 mg and 4 mg doses, children (6-12 years) and adolescent (13-17 years) ADHD patients",linear
same,CL/F,[2]; [6],815 ± 214 mL/min
same,λz,[2]; [6],0.0428 ± 0.0153 h⁻¹
same,CL/F,[2]; [7],612 ± 252 mL/min
same,λz,[2]; [7],0.0496 ± 0.0093 h⁻¹
